Results: ChEMBL document CHEMBL1201862, “PubChem BioAssay data set” (2004)
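All cell lines were grown in 96-well plates and treated with compound for 48 hours. GI50 marks 50% less growth.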 Activity calls are given as the source filed them. Rule as the data show it: active = GI50 up to about 1.1 µM and inactive = higher.

Columns and labels:
Experiment in all cases: NCI anticancer screen, dose series, 48 h
[1] = test system: HOP-92
[2] = test system: M14
[3] = test system: T47D
[4] = test system: SF-295
[5] = test system: BT-549
[6] = test system: COLO 205
[7] = test system: CAKI-1
[8] = test system: UACC-257
[9] = test system: PC-3
[10] = test system: LOX IMVI
[11] = test system: UO-31
[12] = test system: IGROV-1
[13] = test system: MDA-N
[14] = test system: Malme-3M
[15] = test system: A549
[16] = test system: OVCAR-5
[17] = test system: DU-145
[18] = test system: NCI-H522
[19] = test system: OVCAR-3
[20] = test system: HCT-15
[21] = test system: SNB-19
[22] = test system: SK-MEL-5
[23] = test system: HT-29
[24] = test system: SK-OV-3
[25] = test system: SF-539
[26] = test system: CCRF-CEM
[27] = test system: EKVX
[28] = test system: TK-10
[29] = test system: OVCAR-8
[30] = test system: MDA-MB-231
[31] = test system: NCI/ADR-RES
[32] = test system: UACC-62
[33] = test system: NCI-H23
[34] = test system: RPMI-8226
[35] = test system: HCT-116
[36] = test system: SF-268
[37] = test system: ACHN
[38] = test system: SK-MEL-2
[39] = test system: HOP-62
[40] = test system: KM12
[41] = test system: MCF7
[42] = test system: NCI-H460
[43] = test system: MOLT-4
[44] = test system: U-251
[45] = test system: Hs-578T
[46] = test system: SN12C
[47] = test system: 786-0
[48] = test system: SW-620
[49] = test system: MDA-MB-435
[50] = test system: K562
[51] = test system: SNB-75
[52] = test system: HCC 2998
[53] = test system: HL-60
[54] = test system: A498
[55] = test system: OVCAR-4
[56] = test system: RXF 393
[57] = test system: NCI-H226
[58] = test system: SK-MEL-28

Measured: GI50

O=c1cc(CO)n(CCc2c[nH]c3ccccc23)cc1O
51.2 µM: [20]
inactive: [1] 30.6 µM | [2] 47.1 µM | [3] 24.5 µM | [4] > 100 µM | [5] > 100 µM | [6] 55 µM | [7] 46.2 µM | [8] > 100 µM | [9] > 100 µM | [10] > 100 µM | [11] 49.1 µM | [12] 86.5 µM | [13] 21.3 µM | [14] 13.4 µM | [15] > 100 µM | [16] 81.5 µM | [17] 28.2 µM | [18] 24.7 µM | [19] 26.2 µM | [21] 37.1 µM | [22] 47.8 µM | [23] 34 µM | [24] 48.4 µM | [25] > 100 µM | [26] 29.5 µM | [27] > 100 µM | [28] > 100 µM | [29] 69.7 µM | [30] 31.3 µM | [31] 32.3 µM | [32] 23.9 µM | [33] 73.8 µM | [34] > 100 µM | [35] 71.9 µM | [36] 20.7 µM | [37] 66.5 µM | [38] 30.1 µM | [39] 62.7 µM | [40] 42.1 µM | [41] 25.1 µM | [42] 33.3 µM | [43] 6.21 µM | [44] 39.6 µM | [45] 28.1 µM | [46] 36.2 µM | [47] 34.8 µM | [48] > 100 µM | [49] > 100 µM

CC(=O)OC/C=C(/CCl)CCC(Br)C(C)(C)Br.CC(=O)OC/C=C(\CCl)CCC(Br)C(C)(C)Br (stereo unspecified)
inactive: [50] > 10 µM | [51] > 10 µM | [2] > 10 µM | [3] > 10 µM | [4] > 10 µM | [5] > 10 µM | [6] > 10 µM | [7] > 10 µM | [52] > 10 µM | [8] > 10 µM | [9] > 10 µM | [10] > 10 µM | [11] > 10 µM | [12] > 10 µM | [13] > 10 µM | [14] > 10 µM | [15] > 10 µM | [16] > 10 µM | [17] > 10 µM | [18] > 10 µM | [53] > 10 µM | [19] > 10 µM | [21] > 10 µM | [22] > 10 µM | [23] > 10 µM | [24] > 10 µM | [25] > 10 µM | [26] > 10 µM | [27] > 10 µM | [28] > 10 µM | [29] > 10 µM | [30] > 10 µM | [31] > 10 µM | [32] > 10 µM | [54] > 10 µM | [33] > 10 µM | [34] > 10 µM | [35] > 10 µM | [36] > 10 µM | [55] > 10 µM | [37] > 10 µM | [38] > 10 µM | [39] > 10 µM | [40] > 10 µM | [56] > 10 µM | [41] > 10 µM | [42] > 10 µM | [43] > 10 µM | [57] > 10 µM | [44] > 10 µM | [45] > 10 µM | [46] > 10 µM | [47] > 10 µM | [48] > 10 µM | [58] > 10 µM | [49] > 10 µM
> 10 µM: [20]
